Molecular target: hMC2 receptor (Homo sapiens, UniProt Q01718)
Assay: hMC2 membrane binding assay ([125I]ACTH (1-39) Tyr23, SPA)
Design: scale not given here
Details: crude hMC2R membranes from CRE-bla-CHO-K1 cells expressing hMC2 receptor and hMRAP; [125I]ACTH (1-39) Tyr23 0.2 nM; 1.5 hours at room temperature; read-out: MC2R binding potency
Method in brief: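 Ki comes from non-linear regression of SPA scintillation counts. Displacement of 0.2 nM [125I]ACTH(1-39) Tyr23 by compound dose series (usually 0–10,000 nM final) ran 1.5 h at room temperature. Membranes came from CHO-K1 CRE-bla cells stably expressing hMC2R plus hMRAP, bead-coupled in pH 7.4 buffer with 0.2% BSA.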

Chain of hMC2 receptor (Q01718 whole entry): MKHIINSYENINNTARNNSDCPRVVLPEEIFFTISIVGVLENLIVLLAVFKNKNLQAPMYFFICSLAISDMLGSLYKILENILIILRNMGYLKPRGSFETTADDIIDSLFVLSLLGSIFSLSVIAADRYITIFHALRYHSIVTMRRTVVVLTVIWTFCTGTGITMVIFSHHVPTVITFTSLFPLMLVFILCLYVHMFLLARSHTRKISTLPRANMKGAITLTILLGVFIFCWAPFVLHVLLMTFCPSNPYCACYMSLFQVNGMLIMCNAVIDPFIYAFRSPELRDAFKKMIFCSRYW
Chain of hMC2 receptor (Q8TCY5 whole entry partner): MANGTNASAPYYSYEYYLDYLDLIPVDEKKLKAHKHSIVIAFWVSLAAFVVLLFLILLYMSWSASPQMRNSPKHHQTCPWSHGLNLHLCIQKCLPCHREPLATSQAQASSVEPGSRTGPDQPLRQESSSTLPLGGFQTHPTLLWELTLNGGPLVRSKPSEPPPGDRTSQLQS

| Ki [nM] | SMILES |
| --- | --- |
| < 10 | CCOc1ncccc1-c1ccc(N2CCN(C(=O)C34CCC(CC3(F)F)C4(C)C)C[C@H]2CC)c(C(=O)N[C@@H]2CCNC2)n1 (stereo partly drawn) [Compound 1-354, 5-[(2R)-4-[2,2-difluoro-7,7-dimethylbicyclo[2.2.1]heptane-1-carbonyl]-2-ethylpiperazin-1-yl]-2′-ethoxy-N-[(3R)-pyrrolidin-3-yl]-[2,3′-bipyridine]-6-carboxamide] |
| 10 to 100 | CC[C@@H]1CN(C(=O)c2ccc(Cl)cc2C(F)(F)F)CCN1c1ccc(-c2ccccc2OC)cc1CN [Compound 2-3, 1-{4-[(2R)-4-[4-chloro-2-(trifluoromethyl)benzoyl]-2-ethylpiperazin-1-yl]-2′-methoxy-[1,1′-biphenyl]-3-yl}methanamine] |
| < 10 | CCOc1ncccc1-c1ccc(N2CCN(C(=O)c3ccc(OC)nc3C(F)(F)F)C[C@H]2CC)c(C(=O)N[C@H]2CN(C)C[C@H]2F)n1 [Compound 1-296, 2′-ethoxy-5-[(2R)-2-ethyl-4-[6-methoxy-2-(trifluoromethyl)pyridine-3-carbonyl]piperazin-1-yl]-N-[(3S,4R)-4-fluoro-1-methylpyrrolidin-3-yl]-[2,3′-bipyridine]-6-carboxamide] |
| < 10 | CCOc1ncccc1-c1ccc(N2CCN(C(=O)c3ccc(F)cc3C(F)F)C[C@H]2CC)c(C(=O)N[C@@H]2CCN(C)C2)n1 [Compound 1-279, 5-[(2R)-4-[2-(difluoromethyl)-4-fluorobenzoyl]-2-ethylpiperazin-1-yl]-2′-ethoxy-N-[(3R)-1-methylpyrrolidin-3-yl]-[2,3′-bipyridine]-6-carboxamide] |
| < 10 | CCOc1ncccc1-c1ccc(N2CCN(C(=O)OC(c3ccccc3)C(C)(C)C)C[C@H]2CC)c(C(=O)N[C@@H]2CCN(C)C2)n1 (stereo partly drawn) [Compound 1-408, 2,2-dimethyl-1-phenylpropyl (3R)-4-(2′-ethoxy-6-{[(3R)-1-methylpyrrolidin-3-yl]carbamoyl}-[2,3′-bipyridin]-5-yl)-3-ethylpiperazine-1-carboxylate] |
| < 10 | CCOc1ncccc1-c1ccc(N2CCN(C(=O)c3ccc(Cl)cc3C(F)(F)F)C[C@H]2CC)c(C(=O)NC[C@H]2CCCN2)c1 [Compound 1-108, 2-[(2R)-4-[4-chloro-2-(trifluoromethyl)benzoyl]-2-ethylpiperazin-1-yl]-5-(2-ethoxypyridin-3-yl)-N-{[(2R)-pyrrolidin-2-yl]methyl}benzamide] |
| < 10 | CCOc1ccccc1-c1ccc(N2CCN(C(=O)N3CCC[C@H]3C(F)(F)F)C[C@H]2CC)c(C(=O)NC[C@@H]2CCN2C)n1 [Compound 1-387, 6-(2-ethoxyphenyl)-3-[(2R)-2-ethyl-4-[(2S)-2-(trifluoromethyl)pyrrolidine-1-carbonyl]piperazin-1-yl]-N-{[(2S)-1-methylazetidin-2-yl]methyl}pyridine-2-carboxamide] |
| < 10 | CCOc1ncccc1-c1ccc(N2CCN(C(=O)c3ccc(Cl)cc3C(F)(F)F)C[C@H]2CC)c(C(=O)N[C@H]2CCCNC2)c1 [Compound 1-100, 2-[(2R)-4-[4-chloro-2-(trifluoromethyl)benzoyl]-2-ethylpiperazin-1-yl]-5-(2-ethoxypyridin-3-yl)-N-[(3 S)-piperidin-3-yl]benzamide] |
| < 10 | CCOc1ccc(C(=O)N2CCN(c3ccc(-c4cccnc4OCC)nc3C(=O)NC[C@@H]3CCN3)[C@H](CC)C2)c(C(F)(F)F)n1 [Compound 1-256, N-{[(2S)-azetidin-2-yl]methyl}-2′-ethoxy-5-[(2R)-4-[6-ethoxy-2-(trifluoromethyl)pyridine-3-carbonyl]-2-ethylpiperazin-1-yl]-[2,3′-bipyridine]-6-carboxamide] |
| < 10 | CCOc1ncccc1-c1ccc(N2CCN(C(=O)c3ccc(Cl)cc3C(F)(F)F)C[C@H]2CC)c(C(=O)NC[C@@H]2CCCN2)c1 [Compound 1-98, 2-[(2R)-4-[4-chloro-2-(trifluoromethyl)benzoyl]-2-ethylpiperazin-1-yl]-5-(2-ethoxypyridin-3-yl)-N-{[(2S)-pyrrolidin-2-yl]methyl}benzamide] |
| < 10 | CCOc1ncccc1-c1ccc(N2CCN(C(=O)c3ccc(NC)nc3C(F)(F)F)C[C@H]2CC)c(C(=O)NCCNC)c1F [Compound 1-163, 3-(2-ethoxypyridin-3-yl)-6-[(2R)-2-ethyl-4-[6-(methylamino)-2-(trifluoromethyl)pyridine-3-carbonyl]piperazin-1-yl]-2-fluoro-N-[2-(methylamino)ethyl]benzamide] |
| < 10 | CCOc1ccccc1-c1ccc(N2CCN(C(=O)N3CCC[C@H]3C(F)(F)F)C[C@H]2CC)c(C(=O)NCC2CN(C)C2)n1 [Compound 1-362, 6-(2-ethoxyphenyl)-3-[(2R)-2-ethyl-4-[(2S)-2-(trifluoromethyl)pyrrolidine-1-carbonyl]piperazin-1-yl]-N-[(1-methylazetidin-3-yl)methyl]pyridine-2-carboxamide] |
| < 10 | CCOc1ncccc1-c1ccc(N2CCN(C(=O)c3ccc(Cl)cc3C(F)(F)F)C[C@H]2CC)c(C(=O)NCCNC)c1F [Compound 1-95, 6-[(2R)-4-[4-chloro-2-(trifluoromethyl)benzoyl]-2-ethylpiperazin-1-yl]-3-(2-ethoxypyridin-3-yl)-2-fluoro-N-[2-(methylamino)ethyl]benzamide] |
| < 10 | CCOc1ncccc1-c1ccc(N2CCN(C(=O)c3ccc(OC)cc3C(F)(F)F)C[C@H]2CC)c(C(=O)NC2CNC2)c1F [Compound 1-202, N-(azetidin-3-yl)-3-(2-ethoxypyridin-3-yl)-6-[(2R)-2-ethyl-4-[4-methoxy-2-(trifluoromethyl)benzoyl]piperazin-1-yl]-2-fluorobenzamide] |
| < 10 | CCOc1ncccc1-c1ccc(N2CCN(C(=O)c3ccc(Cl)cc3C(F)(F)F)C[C@H]2CC)c(C(=O)NC[C@H]2COCCN2)c1 [Compound 1-138, 2-[(2R)-4-[4-chloro-2-(trifluoromethyl)benzoyl]-2-ethylpiperazin-1-yl]-5-(2-ethoxypyridin-3-yl)-N-{[(3S)-morpholin-3-yl]methyl}benzamide] |
| < 10 | CCOc1ncccc1-c1ccc(N2CCN(C(=O)c3ccc(OC)nc3C(F)(F)F)C[C@H]2CC)c(C(=O)NC[C@@H]2CCN2)n1 [Compound 1-244, N-{[(2S)-azetidin-2-yl]methyl}-2′-ethoxy-5-[(2R)-2-ethyl-4-[6-methoxy-2-(trifluoromethyl)pyridine-3-carbonyl]piperazin-1-yl]-[2,3′-bipyridine]-6-carboxamide] |
| < 10 | CCOc1ncccc1-c1ccc(N2CCN(C(=O)C3(C(F)(F)F)CCCC3)C[C@H]2CC)c(C(=O)NCC2(OC)CN(C)C2)n1 [Compound 1-334, 2′-ethoxy-5-[(2R)-2-ethyl-4-[1-(trifluoromethyl)cyclopentanecarbonyl]piperazin-1-yl]-N-[(3-methoxy-1-methylazetidin-3-yl)methyl]-[2,3′-bipyridine]-6-carboxamide] |
| < 10 | CCOc1ncccc1-c1ccc(N2CCN(C(=O)c3ccc(OC)nc3C(F)(F)F)C[C@H]2CC)c(CN)n1 [Compound 2-31, 1-{2′-ethoxy-5-[(2R)-2-ethyl-4-[6-methoxy-2-(trifluoromethyl)pyridine-3-carbonyl]piperazin-1-yl]-[2,3′-bipyridin]-6-yl}methanamine] |

Source: patent US10981894B2, “Melanocortin subtype-2 receptor (MC2R) antagonists and uses thereof” (Crinetics Pharmaceuticals, Inc., priority 2018, dated 2021)
